Assay results reported in patent US20130142784A1 (The Board of Trustees of the University of Illinois, priority 2010, published 2013).
Blank lines part the entries; values can stand above or below the compound they belong to. Ends that are not written are not given here.

Key:
GATA-3 promoter [1] = test: ChIP assay, DNMT3b binding; assay type: cell-based, human; conditions: compared with control siRNA
Protocol: (§1) The mouse GATA-3 promoter contains three FoxM1 consensus sequences within 2 kb of the transcriptional start site. Whether FoxM1 directly regulated GATA-3 at the RNA level was investigated using chromatin immunoprecipitation (ChIP) assay. Cells were fixed in 1% formaldehyde for 10 minutes to allow crosslinking and then quenched with […] glycine. For in vivo ChIP assays, single cell suspensions were generated using collagenase/hyaluronidase followed by fixing. Cells were collected and lysed in SDS lysis buffer (1% SDS, 10 mM EDTA, 50 mM Tris pH 8, protease and phosphatase inhibitors). Lysate was sonicated, pre-cleared, and incubated with antibodies against GFP (Clontech, JL-8), GATA-3 (Santa Cruz HG3-31), FoxM1 (Major et al., 2004, “Forkhead box M1B transcriptional activity requires binding of Cdk-cyclin complexes for phosphorylation-dependent recruitment of p300/CBP coactivators” Mol Cell Biol 24: 2649-61), DNMT3b (Imgenex 52A1018), or Rb (Cell Signaling, 4H1) followed by purification with Protein-A and Protein-G Sepharose beads in the presence of salmon sperm DNA (Upstate). Beads were washed and DNA extracted using a PCR purification kit (Qiagen). PCR products were visualized by gel electrophoresis or analyzed using SYBR Green (Bio-Rad), normalized to the IgG control (Santa Cruz Biotechnology).
DNMT3b has been specifically implicated in mammary tumor biology. […]

SKBR3 resistant cells [2] = test: cell number after FoxM1 siRNA knockdown and HERCEPTIN; assay type: cell-based, human; conditions: in conjunction with HERCEPTIN
Protocol: The source of resistance in these lines was not uniform, as an increase in phosphorylated Akt was only observed in SKBR3 cells. FoxM1 levels in parental and resistant lines were assayed by western blot analysis. Extracts were prepared in lysis buffer containing 1 mM EDTA, 0.15M NaCl, 0.05M Tris-HCl pH 7.5, and 0.5% Triton-X. Phosphatate Inhibitor Cocktail Set II (Calbiochem) and protease inhibitor (Roche) were added before each experiment using the rabbit polyclonal antibody referenced above. Quantification was performed using Image J software (NIH).
Additionally, levels of cell cycle regulators, Polo-like Kinase 1 (1.5-fold) and Cyclin B1 (16.6-fold) were amplified in the resistant line as compared to the parental control line (FIG. 3B). GAPDH is used as a loading control to ensure that the same amount of RNA was added to each reaction. All bands are normalized to GAPDH bands from the same sample and then normalized values from parental and resistant cells can be compared. […] The control (5′ […] 3′, SEQ ID NO:12) and FoxM1 targeting siRNA (5′ […] 3′, SEQ ID NO:9) were both from Dharmacon, and purified using standard desalting methods. Prior to transfection, plates are washed and cells are placed in serum-free media. siRNA was added to a final concentration of 7.5 pm to each plate using Lipofectamine 2000 (Invitrogen) transfection. […]

GATA-3 promoter [3] = test: ChIP assay, Rb binding; assay type: cell-based, human; conditions: compared with control siRNA
Protocol: as §1

[4] = tested on: cells with HER2/ErbB2 amplification; conditions: on average; cited from earlier work
[5] = tested on: polymerized and soluble tubulin fractions of SKBR3-pBabe and SKBR3-FoxM1 expressing lines; test: polymerized vs soluble tubulin fractionation and western blot; assay type: cell-based, human
Protocol: In addition, the possibility that FoxM1 induced altered microtubule dynamics was investigated. Paclitaxel has been known to stabilize tubulin, and thus the ratio of polymerized to soluble microtubule fractions was compared. Cell lysates of SKBR3-pBabe and SKBR3-FoxM1 expressing lines untreated or treated with paclitaxel were fractionated to obtain polymerized and soluble tubulin fractions. […] Briefly, cells were seeded at 80% confluency in 24-well plates, collected in hypotonic buffer (1 mM MgCl2, 2 mM EGTA, 0.5% Nonidet P-40, 20 mM Tris-HCl pH 6.8) and centrifuged for 10 minutes at room temperature (14,000 rpm). The supernatant was used as the soluble fraction while the pellet was used as the polymerized fraction.

SKBR3 cells = test: cell viability, CellTiter-Glo Luminescent assay, paclitaxel; assay type: cell-based, human; conditions: for IC50: Homo sapiens, TAXOL 24 hours; for cells survived: 0.1 μM, seven days
Protocol: After seven days of treatment in a low dose of paclitaxel (TAXOL) (0.1 μM), only 25% of SKBR3-pBabe cells survived, while nearly 50% of SKBR3-FoxM1 cells survived (FIG. 4A).

SKBR3 resistant cells [6] = test: colony forming assay, ARF-derived peptide and trastuzumab; assay type: cell-based, human; conditions: with trastuzumab; peptide 2 μM
Protocol: (§2) FIGS. 6A and 6B are graphs showing quantitative colony forming assay of parental or resistant SKBR3 and MDA-MB-453 cells treated with either ARF-peptide or mutant peptide (2 μM). […] Also shown below the graphs are images of representative wells of cells from such colony-forming assays.
(§3) The cells were maintained in HERCEPTIN thereafter. […] Quantification was done using Adobe Photoshop.
(§4) Studies have shown that FoxM1 is inhibited by a small peptide that contains a 19-amino acid region of the p19ARF protein (residues 26 to 44) (SEQ ID NO:2). […] Treatment with the ARF-derived peptide and trastuzumab led to a 90% reduction in cell numbers in both SKBR3 and MDA-MB-453 resistant cells as measured by colony forming assays (following the same protocol as described above in Example 5) (FIG. 6A).

[7] = tested on: MDA-MB-453 resistant cells; test: as above; assay type: cell-based, human; conditions: with trastuzumab; peptide 2 μM
Protocol: as §2, §3, §4

[8] = tested on: hepatocellular carcinoma cells; conditions: mouse; cited from earlier work
[9] = tested on: SKBR3-pBabe and FoxM1 cells; test: surviving cells after ARF-peptide added to HERCEPTIN, paclitaxel or combination; assay type: cell-based, human
Protocol: as §2
The ability of the ARF-peptide to sensitize FoxM1-expressing cells to treatment was also investigated.

[10] = FoxM1-expressing cells, with HERCEPTIN and paclitaxel combination treatment

Compound: 5′ GGACCACUUUCCCUACUUUUU 3′ (listed as RNA, chemistry not given here) [FoxM1 targeting siRNA]
DNMT3b binding to GATA-3 promoter at −747 and −1431 (GATA-3 promoter [1]): significantly decreased
reduction in cell number (SKBR3 resistant cells [2]): more than 75%
Rb binding to GATA-3 promoter (GATA-3 promoter [3]): could not bind to the GATA-3 promoter

IC50 (SKBR3 cells; SK-BR-3, SKBR3 cells transfected with FoxM1-specific siRNA 72 hours): 10 nM
IC50 (SKBR3 cells; SK-BR-3, SKBR3 cells transfected with control siRNA 72 hours): 60 nM
Compound: CC(=O)O[C@H]1C(=O)[C@@]2(C)[C@H]([C@H](OC(=O)c3ccccc3)[C@]3(O)C[C@H](OC(=O)[C@H](O)[C@@H](NC(=O)c4ccccc4)c4ccccc4)C(C)=C1C3(C)C)[C@]1(OC(C)=O)CO[C@@H]1C[C@@H]2O [paclitaxel]
higher dose required to produce the same effect [4]: 100 fold
ratio for β-tubulin ([5]; FoxM1-expressing cells after paclitaxel treatment): did not show a significant change
α- and β-tubulin distribution ([5]; SKBR3-pBabe cells after paclitaxel treatment): dramatic shift towards the polymerized fraction
cells survived (SKBR3 cells; SKBR3-FoxM1 cells): ~50%
cells survived (SKBR3 cells; SKBR3-pBabe cells): 25%

Compound: ARF-derived peptide: cell-penetrating peptide inhibitor of FoxM1 containing a 19-amino acid region of the p19ARF protein (residues 26 to 44) (KFVRSRRPRTASCALAFVN; not fully specified; UniProt Q64364 26-44, looked up, fragment)
reduction in cell numbers (SKBR3 resistant cells [6]): 90%
reduction in cell numbers [7]: 90%
proliferation and apoptosis of hepatocellular carcinoma cells in vivo [8]: reduce proliferation and induce apoptosis
cell killing [9, 10]: more than 97%
cells surviving [9, 10]: less than 3%
cell number compared to mutant peptide ([9]; added to HERCEPTIN, paclitaxel, or combination treatment, three days): dramatic reduction in cell number
cell killing at the same dosage compared to mutant peptide ([9]; pBabe cells, all treatments): greater cell killing
